Type in all cases: in vivo
Test [1] has as its system normal Sprague Dawley rat. Kind of test: Natriuretic response (Na+ and K+ urine excretion) after oral administration in a normal Sprague Dawley rat. As to the method:
A female Sprague Dawley rat (250 g) was anesthetized lightly with ether and a urethra catheter was inserted using KY jelly and 2% lidocaine as a lubricant. The rat was restrained in a modified Plexiglas tube so that urine could be collected in 1.5-mL microcentrifuge tubes. No saline infusion was administered. Synthetic xanthurenic acid 8-O-β-D-glucoside was injected with a feeding needle at the time indicated in a 1-mL volume of water over the course of 1 minute. […] The tubes were centrifuged at 14,000 rpm to separate any RBC's from the urine. Na^+ and K^+ concentrations in the urine were measured with respective ion selective electrodes. The Na^+ and K^+ excretion rates were calculated by: (vol of urine/time of collection period)×(ion urine concentration).
A female Sprague Dawley rat (250 g) was anesthetized lightly with ether and a urethra catheter was inserted using KY jelly and 2% lidocaine as a lubricant. The rat was restrained in a modified Plexiglas tube so that urine could be collected in 1.5-mL microcentrifuge tubes. No saline infusion was administered. Xanthurenic acid 8-O-sulfate was injected with a feeding needle at the time indicated in a 1-mL volume of water over the course of 1 minute. The tubes were centrifuged at 14,000 rpm to separate any RBC's from the urine. Na^+ and K^+ concentrations in the urine were measured with respective ion selective electrodes. The Na^+ and K^+ excretion rates were calculated by: (vol of urine/time of collection period)×(ion urine concentration).

In test [2] the test system is uremic Sprague Dawley rat. The experiment in a line: Natriuretic response (Na+ and K+ urine excretion) after i.v. administration in a uremic Sprague Dawley rat. From the text: Female Sprague-Dawley rat, weighing 225 g, was made uremic by tying off one kidney and 30-50% of the second kidney. Two weeks later the rat was ready to test for natriuretic activity. The rat was anesthetized lightly with ether and a tail vein catheter was placed using PE10 tubing. Additionally, a urethra catheter was inserted using KY jelly and 2% lidocaine as a lubricant. The rat was restrained in a modified Plexiglas tube so that urine could be collected in 1.5-mL microcentrifuge tubes. Saline infusion started at time zero at 0.02 mL/min for the length of the assay. The same i.v. catheter was used to inject isolated xanthurenic acid 8-O-β-glucoside at the time indicated in a 1-mL volume in saline over the course of 10 minutes. […] The tubes were centrifuged at 14,000 rpm to separate any RBC's from the urine. Na^+ and K^+ concentrations in the urine were measured with respective ion selective electrodes. The Na^+ and K^+ excretion rates were calculated by: (vol of urine/time of collection period)×(ion urine concentration).
A female Sprague-Dawley rat, weighing 225 g, was made uremic by tying off one kidney and 30-50% of the second kidney. Two weeks later the rat was ready to test for natriuretic activity. The rat was anesthetized lightly with ether and a tail vein catheter was placed using PE10 tubing. Additionally, a urethra catheter was inserted using KY jelly and 2% lidocaine as a lubricant. The rat was restrained in a modified Plexiglas tube so that urine could be collected in 1.5-mL microcentrifuge tubes. Saline infusion started at time zero at 0.02 mL/min for the length of the assay. The same i.v. catheter was used to inject the test compound. Isolated xanthurenic acid 8-O-sulfate, 2 μg, was injected at the time indicated in a 1 mL volume in saline over the course of 10 minutes. Then saline infusion was returned to 0.02 mL/min for the duration of the assay. The tubes were centrifuged at 14,000 rpm to separate any RBC's from the urine. Na^+ and K^+ concentrations in the urine were measured with respective ion selective electrodes. The Na^+ and K^+ excretion rates were calculated by: (vol of urine/time of collection period)×(ion urine concentration).

Test [3] relates to normal Sprague Dawley rat. The experiment in a line: Natriuretic response (Na+ and K+ urine excretion) after i.v. administration in a normal Sprague Dawley rat. To be noted: for natriuretic response (Na+ excretion): 2 μg i.v., FIGS. 1-4. As to the method:
A female Sprague Dawley rat (250 g) was anesthetized lightly with ether and a tail vein catheter was placed using PE10 tubing. Additionally, a urethra catheter was inserted using KY jelly and 2% lidocaine as a lubricant. The rat was restrained in a modified Plexiglas tube so that urine could be collected in 1.5-mL microcentrifuge tubes. Saline infusion started at time zero at 0.02 mL/min for the duration of the assay. The same i.v. catheter was used to inject the test compound. Synthetic xanthurenic acid 8-O-β-D-glucoside, 2 μg, was injected at the time indicated in a 1-mL volume in saline over the course of 10 minutes. The tubes were centrifuged at 14,000 rpm to separate any RBC's from the urine. Na^+ and K^+ concentrations in the urine were measured with respective ion selective electrodes. The Na^+ and K^+ excretion rates were calculated by: (vol of urine/time of collection period)×(ion urine concentration). […] Given an extracellular volume of 50 mL in a 250-g rat, the concentration of the test compound was […], a possible minimum dose.
A female Sprague Dawley rat (250 g) was anesthetized lightly with ether and a tail vein catheter was placed using PE10 tubing. Additionally, a urethra catheter was inserted using KY jelly and 2% lidocaine as a lubricant. The rat was restrained in a modified Plexiglas tube so that urine could be collected in 1.5-mL microcentrifuge tubes. Saline infusion started at time zero at 0.02 mL/min for the length of the assay. The same i.v. catheter was used to inject the test compound. Synthetic xanthurenic acid 8-O-β-D-glucoside, 10 μg i.v. was injected at the time indicated in a 1-mL volume in saline over the course of 10 minutes. At the indicated time the saline infusion was increased tenfold to 0.2 mL/min for ten minutes and returned to 0.02 mL/min for the duration of the assay. The tubes were centrifuged at 14,000 rpm to separate any RBC's from the urine. Na^+ and K^+ concentrations in the urine were measured with respective ion selective electrodes. The Na^+ and K^+ excretion rates were calculated by: (vol of urine/time of collection period)×(ion urine concentration).

Setting [4] is: i.v. administered sulfate, FIG. 19.

Take `O=C(O)c1cc(=O)c2cccc(OS(=O)(=O)O)c2[nH]1` [xanthurenic acid 8-O-sulfate, Xanthurenic Acid 8-O-sulfate]: the “Na+ urine concentration” value in test [1] (20 ug oral, synthetic sulfate, normal rat) is “below 50 mM”. Besides, the natriuretic response entry in test [1] (20 ug oral, synthetic sulfate, normal rat, FIGS. 21-24) was “not orally active”; in test [2] (isolated sulfate 2 μg i.v., uremic rat, FIGS. 17-20), “caused sustained natriuretic response”. In addition, the “Na+ urine concentration after the increase” value in test [2] (setting [4]) was determined as 160 mM. Moreover, in test [2] (setting [4]), the “Na+ urine concentration before the increase” value stood at 60 mM. For the same compound, the “time until natriuresis approached control levels” value in test [2] (isolated sulfate 2 μg i.v., uremic rat) was not above 70 min. The “time to peak of natriuresis” value in test [2] (isolated sulfate 2 μg i.v., uremic rat, FIGS. 17 and 18) was not above 30 min. In addition, the “K+ excretion” value in test [2] (isolated sulfate 2 μg i.v., uremic rat, FIGS. 18 and 19) is on record as “did not increase”.
In the case of `O=C(O)c1cc(=O)c2cccc(O[C@@H]3OC(CO)[C@@H](O)[C@H](O)C3O)c2[nH]1` (stereo partly drawn) [xanthurenic acid 8-O-β-D-glucoside, Xanthurenic acid 8-O-β-D-glucoside], the “natriuretic response (Na+ excretion)” value in test [3] (synthetic compound, normal rat) is “caused a sustained natriuretic response”. In addition, the “Na+ excretion rate before increase of saline infusion” value in test [3] (10 μg i.v., saline 0.02 mL/min, FIG. 6) stood at 2 uEq/min. Further, the “Na+ excretion rate after saline infusion increased tenfold” value in test [3] (10 μg i.v., saline 0.2 mL/min for 10 minutes, FIG. 6) came to 10 uEq/min. The “time after administration at which urine production decreased” value in test [3] (10 μg i.v., saline infusion 0.02 mL/min) turned out to be 140 min. The “K+ excretion” value was “did not increase” in test [3] (10 μg i.v., synthetic compound, normal rat); “did not increase K^+ excretion” in test [1] (pretreatment with glucoside 10 μg oral followed by furosemide 100 μg oral, FIG. 10); “did not increase” in test [2] (isolated glucoside 3 μg i.v., uremic rat, FIGS. 14 and 15). The natriuretic response entry was “caused a sustained natriuretic response” in test [3] (10 μg i.v., synthetic compound, normal rat, FIGS. 5-8); “orally active” in test [1] (10 μg oral, synthetic compound, normal rat, FIGS. 9-12); “caused a sustained natriuretic response” in test [2] (isolated glucoside 3 μg i.v., uremic rat, FIGS. 13-16). For the same compound, in test [3] (synthetic glucoside given subsequently to xanthurenic acid 2 ug i.v., normal rat), the natriuresis entry was “did cause natriuresis”. For the same compound, the “Na+ urine concentration reached” value in test [1] (glucoside oral, normal rat, FIG. 11) is on record as 160 mM. Besides, the “furosemide-induced K+ excretion” value in test [1] (pretreatment with glucoside 10 μg oral, furosemide 100 μg oral) is “inhibited”. Also, in test [2] (isolated glucoside 3 μg i.v., uremic rat, FIG. 13), the “time of peak Na+ excretion” value came out at 70 min. For the same compound, the “K+ excretion after furosemide” value in test [2] (pretreatment with isolated glucoside 3 μg i.v. followed by furosemide 20 ug i.v., uremic rat, FIGS. 14 and 15) is given as “prevented the typical increase in K^+ excretion”.
With `O=C(O)c1cc(O)c2cccc(O)c2n1` [xanthurenic acid], in test [3] (synthetic compound, normal rat), the “natriuretic response (Na+ excretion)” value was “did not increase Na^+ excretion”.

(Values after US8361734B2, “Xanthurenic acid derivative pharmaceutical compositions and methods related thereto” (Naturon, Inc., priority 2004, dated 2013).)
